In publication PMC8996404, “The pharmacokinetics of buserelin after intramuscular administration in pigs and cows” (BMC Veterinary Research, 2022):
Read-outs that look alike come from different tables or passages of the source. Marks after values point to notes of the source that are not given here.

Columns and labels:
[1] = dogs, cited from earlier work
Source text: (§1) High plasma concentration, high bonding rate, means more drugs cannot across the membrane and barrier. Therefore, binding changes can affect the distribution of drugs. Because protein binding of buserelin is about 15% [2], it is proportional to the body volume and body weight and animals using in this study had larger volume of body water or extracellular water. It has been repo ...

[2] = Plasma pharmacokinetics of buserelin after i.m. administration in cows; assay type: in vivo; conditions: for MRT: cow, 3 mg per cow
Procedure: The UPLC-MS/MS system (Waters Acquity UPLC and Waters Quattro Premier, Waters Co., USA) and the chromatographic column (Agilent Poroshell 120 EC-C18, 4.6 × 100 mm, 2.7 µm) were used in this study. The separation was performed with 0.1% formic acid in water (mobile phase solvent A) and 0.1% formic acid in acetonitrile (solvent B) with a flow rate of 0.6 mL/min. The gradient elution program was optimized as follow: 75% A (0–0.5 min), 10% A (5–7 min) 75% A (7.1–10 min). The sample was injected at a volume of 5 µL at 30℃. The mass spectrometer was operated in the positive ion detection mode with the capillary voltage set at 5.5 kV and the source temperature was 550 ℃. Others parameters were as follows: nebulizer gas pressure was 55 psi, ion source gas pressure was 60 psi, curtain gas pressure was 30 psi, declustering potential was 68 V, entrance potential was 10 V, and collision cell exit potential was 13 V.
Five healthy adult female Danish Landrance × Yorkshire × Duroc pigs (100–120 days, 50–60 kg, Ningbo Kuangdai Husbandry Co., Ltd. Ningbo China) and five healthy adult female Holstein cows (1.5–2 years, 440–500 kg, Ningbo Milk Group Co., Ltd. Ningbo China) were randomly selected to use in this research. All animals were examined by a local veterinarian with regard to physical, hematologic, and biochemical conditions during the two-week adaptation period. The two protocols used in this study were reviewed and approved by the Institutional Animal Care and Use Committee of China Agricultural University (pigs: 11605–20-D-007; cows: 11605–20-B-003). Buserelin injection solution (0.5 mg/mL, 10 mL) was acquired from Ningbo Sansheng Pharmaceutical Company. In order to avoid introducing bias results from feeding, each animal in the study fasted for approximately 12 h. Each pig received 1 mg buserelin injection solution (about 0.018 mg/kg), and each cow received 3 mg (about 0.0064 mg/kg). During the entire experiment, water was available ad libitum. Adverse symptoms were recorded and evaluated. Blood samples of 5 mL were collected into heparinized tube (pigs: anterior vena cava; cows: vena jugularis interna) at 0, 0.083, 0.167, 0.333, 0.5, 0.75, 1, 1.5, 2, 3, 4, 5, 6, 7, and 8 h after i.m. administration. The blood samples were centrifuged for 5 min at 2775 × g. Plasma samples were stored in -20 ℃ until analysis (within 21 days of collection).
Frozen plasma samples were thawed and vortexed, and 500 µL plasma and 1 mL 0.1% formic acid in acetonitrile were mixed together. After 10 min ultrasonic treatment, the samples were centrifuged for 10 min at 11,100 × g. The upper layer was collected and the remainder was treated twice. These two supernatants were added together, the samples were evaporated via nitrogen gas at 40 ℃, and redissolved in 2.5 mL 0.1% formic acid in acetonitrile-0.1% formic acid in water (1:3 v/v). After filtered through a 0.22 µm microbore cellulose membrane, the samples were collected and bottled to UPLC-MS/MS system for analysis.
Plasma concentrations of buserelin were analyzed using the established method, and the pharmacokinetic parameters were calculated via a non-compartmental analysis model 200 in WinNonlin software (WinNolin 8.1.0 Certara, Pharsight, Mountain View, CA, USA) and expressed in mean ± standard deviation (SD), and no statistical tests were applied.

[3] = Stock solution stability test of buserelin; assay type: physicochemical; conditions: stock solution in methanol, concentration 100 ng/mL, UPLC-MS/MS
Procedure: A standard stock solution (1 mg/mL) was prepared by dissolving 2 mg standard buserelin in 2 mL methanol. This solution was stored in brown glass bottles at -20 ℃. Working solutions were prepared by diluting the stock solution with methanol.
Selectivity has been assessed by comparing the chromatograms of blank plasma samples and those of corresponding items with buserelin to exclude the interfering peaks. The calibration curve was established by spiking the blank matrix with known concentration of buserelin. Limit of detection (LOD) and Limit of quantification (LOQ) were determined as the concentrations of buserelin which produced signal/ noise ratio of 3 and 10, respectively. For linearity of this method, calibration curves were generated by least squares regression method with a weighting factor and regression coefficient. Recovery was determined by comparing the analytical results of the extracted quality control (QC) samples with pure standard solution. The accuracy was assessed as the percentage of the measured concentration to the nominal standard concentration. The precision was expressed by coefficient of variation. Stability was assessed by autosampler, benchtop, freeze–thaw, and stock solution test. […]

[4] = Stability of buserelin in cow plasma (autosampler, benchtop, freeze–thaw); assay type: in vitro ADME; conditions: UPLC-MS/MS
Procedure: Selectivity has been assessed by comparing the chromatograms of blank plasma samples and those of corresponding items with buserelin to exclude the interfering peaks. The calibration curve was established by spiking the blank matrix with known concentration of buserelin. Limit of detection (LOD) and Limit of quantification (LOQ) were determined as the concentrations of buserelin which produced signal/ noise ratio of 3 and 10, respectively. For linearity of this method, calibration curves were generated by least squares regression method with a weighting factor and regression coefficient. Recovery was determined by comparing the analytical results of the extracted quality control (QC) samples with pure standard solution. The accuracy was assessed as the percentage of the measured concentration to the nominal standard concentration. The precision was expressed by coefficient of variation. Stability was assessed by autosampler, benchtop, freeze–thaw, and stock solution test. The matrix effect was obtained with the area of post-extraction blank plasma samples added with buserelin at two levels with the equivalent concentration standard solutions that added with initiate mobile phase.

[5] = pigs, cited from earlier work
Procedure: as §1, with “The Vd was 80.49 ± 43.88 L for pigs and 839.88 ± 174.77 L for cows, which is larger than pigs (304 ± 112 mL/kg) at a single dose 1 mg i.v., and dogs (50.1 ± 2.4 mL/kg) at a single dose 5 mg i.v.. High” for “High”

[6] = tested on: pyroglutamyl-amino-peptidase; conditions: enzyme can be isolated from mammalian liver ref 2; cited from earlier work
Procedure: as §1, with “The Vd was 80.49 ± 43.88 L for pigs and 839.88 ± 174.77 L for cows, which is larger than pigs (304 ± 112 mL/kg) at a single dose 1 mg i.v., and dogs (50.1 ± 2.4 mL/kg) at a single dose 5 mg i.v.. High” for “High”

[7] = female, Holstein, im, single i.m. dose 3 mg per cow, plasma, mean ± SD, n = 5
[8] = single i.m. dose 3 mg per cow, plasma, mean ± SD, n = 5

## CCNC(=O)[C@@H]1CCCN1C(=O)[C@H](CCCNC(=N)N)NC(=O)[C@H](CC(C)C)NC(=O)[C@@H](COC(C)(C)C)NC(=O)[C@H](Cc1ccc(O)cc1)NC(=O)[C@H](CO)NC(=O)[C@H](Cc1c[nH]c2ccccc12)NC(=O)[C@H](Cc1cnc[nH]1)NC(=O)[C@@H]1CCC(=O)N1 [buserelin, Buserelin]
[1]; 5 mg per dog i.v. injection ref 18
  clearance: 1.7 ± 0.10 mL/min/kg
[1]; s.c. at a dose of 3.3 mg ref 18
  tmax: 4 h
[1]; single dose 5 mg i.v. ref 18
  Vd: 0.0501 ± 0.0024 L/kg
[1]; single dose of 5 mg i.v. injection ref 18
  t1/2: 0.94 ± 0.0163 h
[2]; female, Holstein, plasma, im, single i.m. dose 3 mg per cow, plasma, mean ± SD, n = 5, read-out: MRT0-t
  MRT: 1.85 ± 0.56 h
[2]; female, Holstein, plasma, im, single i.m. dose 3 mg per cow, plasma, mean ± SD, n = 5, read-out: MRT0-∞
  MRT: 2.16 ± 0.7 h
[2]; female, Holstein, im, single i.m. dose 3 mg per cow (about 0.0064 mg/kg), plasma, UPLC-MS/MS, non-compartmental, mean ± SD, n = 5
  tmax: 1.05 ± 0.27 h
[2]; female, Holstein, im, single i.m. dose 3 mg per cow, plasma, 0 to last measurement point, mean ± SD, n = 5
  AUC(0-t): 5.63 ± 1.86 ng·h/mL
[2]; female, Holstein, im, single i.m. dose 3 mg per cow, plasma, UPLC-MS/MS, non-compartmental, mean ± SD, n = 5
  Cmax: 2.68 ± 0.36 ng/mL
[2]; [7]
  AUC(0-inf): 5.99 ± 2.01 ng·h/mL
  CL/F: 9080 mL/min
  Vd/F: 840 ± 175 L
[2]; female, Holstein, im, single i.m. dose 3 mg per cow, plasma, non-compartmental, mean ± SD, n = 5, read-out: t1/2 (elimination half-time) (converted)
  half-life: 1.13 ± 0.3 h
[2]; single i.m. dose 3 mg per cow (about 0.0064 mg/kg), rate of Cmax to dosage, mean ± SD, n = 5
  Cmax/D: 420.35 ± 58.40 ng/mL/mg/kg
[2]; single i.m. dose 3 mg per cow, n = 5
  Adverse effects: No adverse effects were observed
[2]; [8]
  AUMClast: 11.23 ± 6.89 h × h × ng/mL
  ka (absorption rate constant): 0.58 ± 0.17 h⁻¹
[3]; column Cow
  Stock solution stability, Mean ± SD: 2.51 ± 0.05 Peak area (10^5)
[3]; column Pig
  Stock solution stability, Mean ± SD: 2.50 ± 0.05 Peak area (10^5)
[4]; autosampler, concentration 0.25 ng/mL
  Stability, Accuracy Mean ± SD: 0.24 ± 0.01
[4]; autosampler, concentration 4 ng/mL
  Stability, Accuracy Mean ± SD: 3.90 ± 0.30
[4]; benchtop, concentration 0.25 ng/mL
  Stability, Accuracy Mean ± SD: 0.25 ± 0.02
[4]; benchtop, concentration 4 ng/mL
  Stability, Accuracy Mean ± SD: 3.87 ± 0.41
[4]; freeze–thaw, concentration 0.25 ng/mL
  Stability, Accuracy Mean ± SD: 0.26 ± 0.02
[4]; freeze–thaw, concentration 4 ng/mL
  Stability, Accuracy Mean ± SD: 3.95 ± 0.34
[5]; 1 mg per pig i.v. injection, no reference given
  clearance: 2.0 ± 0.4 mL/min/kg
[5]; single dose 1 mg i.v. ref 14
  Vd: 0.304 ± 0.112 L/kg
[5]; single dose of 1 mg i.v. injection ref 14
  t1/2: 1.72 ± 0.333 h
[6]
  Degradation by pyroglutamyl-amino-peptidase: rapidly degraded
